# In patent publication US5814654A, “Substituted guanidine derivatives” (Sumitomo Pharmaceuticals Company, Limited, priority 1996, dated 1998):
# Biological target: T1, Na+/H+ exchange transport system (Rattus norvegicus, UniProt P26431)
# T1 construct: using the vascular smooth muscle cells isolated from the rat thoracic aorta; endogenous in cells; host or cells: vascular smooth muscle cells isolated from the rat thoracic aorta
# Assay: Inhibitory effect on the Na+/H+ exchange transport system (in vitro), change in intracellular pH during acid loading
# Assay type: cell-based
# Conditions: vascular smooth muscle cells isolated from the rat thoracic aorta
# Experimental: Inhibitory effect on the Na+/H+ exchange transport system (in vitro)
# The test was carried out according to the method of Yamori et al. (J. Hypertension, 8, 153 (1990)). In detail, inhibitory effect on the Na+/H+ exchange transport system was evaluated by the change in intracellular pH during acid loading, using the vascular smooth muscle cells isolated from the rat thoracic aorta.
# T1 sequence (P26431 whole entry): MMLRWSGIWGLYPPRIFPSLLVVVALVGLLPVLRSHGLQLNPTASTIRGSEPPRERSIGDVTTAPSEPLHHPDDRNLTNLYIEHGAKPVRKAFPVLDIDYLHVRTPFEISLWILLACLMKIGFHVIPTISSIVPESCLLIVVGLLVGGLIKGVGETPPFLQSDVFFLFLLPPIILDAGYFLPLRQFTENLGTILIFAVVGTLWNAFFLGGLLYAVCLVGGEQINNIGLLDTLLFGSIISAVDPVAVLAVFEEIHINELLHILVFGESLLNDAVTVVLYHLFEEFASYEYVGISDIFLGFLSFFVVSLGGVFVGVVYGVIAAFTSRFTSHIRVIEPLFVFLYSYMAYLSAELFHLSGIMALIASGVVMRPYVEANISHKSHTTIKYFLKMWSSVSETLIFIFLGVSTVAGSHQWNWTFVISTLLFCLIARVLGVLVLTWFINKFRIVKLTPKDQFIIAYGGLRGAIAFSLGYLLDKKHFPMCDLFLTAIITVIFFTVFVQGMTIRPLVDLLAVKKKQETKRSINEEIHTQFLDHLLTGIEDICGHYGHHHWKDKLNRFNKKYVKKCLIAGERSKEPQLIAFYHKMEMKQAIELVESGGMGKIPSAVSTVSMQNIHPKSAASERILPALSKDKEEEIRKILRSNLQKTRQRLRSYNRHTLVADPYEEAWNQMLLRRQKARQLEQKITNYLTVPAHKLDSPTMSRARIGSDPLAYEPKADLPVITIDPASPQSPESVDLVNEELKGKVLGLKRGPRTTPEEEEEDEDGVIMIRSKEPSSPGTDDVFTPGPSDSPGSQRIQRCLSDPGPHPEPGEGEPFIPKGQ
row,Compound,IC50
1,"NC(N)=NC(=O)c1[nH]c2cccc3c2c1CCC3=O [Example 1, N-(aminoiminomethyl)-1,3,4,5-tetrahydro-5-oxo-benz[cd]indole-2-carboxamidemethanesulfonate]",4 µM
2,"Cn1c(C(=O)N=C(N)N)c2c3c(cccc31)CCC2 [Example 2, N-(aminoiminomethyl)-1,3,4,5-tetrahydro-1-methyl-benz[cd]indole-2-carboxamide methanesulfonate]",0.15 µM
3,"NC(N)=NC(=O)c1[nH]c2cccc3c2c1CCC3 [Example 3, N-(aminoiminomethyl)-1,3,4,5-tetrahydro-benz[cd]indole-2-carboxamide methanesulfonate]",0.7 µM
